Data reported in patent US20240148745A1, “COMPOUNDS FOR USE IN PROGRESSIVE MULTIPLE SCLEROSIS” (FONDAZIONE CENTRO SAN RAFFAELE, priority 2021, published 2024).

Legend:
[1] = test system: rat oligodendrocyte progenitor CG4 line; assay: Differentiation assay on rat oligodendrocyte progenitor CG4 line (HCS, mCherry+); type: cell-based; details: secondary screen of 49 selected compounds, 1 μM, 5 days
How it was run: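 Double-reporter CG4 cells (mCherry in mature oligodendrocytes, EGFP in all lineage stages) proliferated 24 h, then given compounds at 1 μM for 5 days of differentiation, ⅔ medium changed at day 3. 9cis-RA as positive control, basal medium and 0.1% DMSO as negative; triplicates imaged by HCS, 35 fields/well.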

[2] = test system: human iPS-derived neuroprecursors; assay: Differentiation of human iPS-derived neuroprecursors into MBP+ oligodendrocytes; type: cell-based; details: 1 μM in minimal medium, p<0.05
How it was run: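 Human iPS-derived NPCs with doxycycline-inducible SOX10/OLIG2/NKX6.2 were differentiated, replated on day 7, then treated in minimal medium with compound at 1 μM (DMSO vehicle negative control, 60 ng/mL T3 positive control) until fixation on day 21. MBP+ cells were counted manually by immunocytochemistry against DAPI-counted nuclei.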

SMILES: O=C(c1ccc(CN2CCOCC2)cc1)N1CCN(C2CC2)CC1 [Bavisant]
- CG4 differentiation compared with 9cis-RA positive control [1]: promoting differentiation significantly higher than 9cis-RA positive control
- differentiation into MBP+ oligodendrocytes [2]: promote significantly (p<0.05) the differentiation into MBP+ oligodendrocytes

SMILES: CC(=O)N1CCN([C@H]2CCN(C(=O)N(C)[C@H](C)c3cc(C(F)(F)F)cc(C(F)(F)F)c3)[C@@H](c3ccc(F)cc3C)C2)CC1 [Casopitant]
- CG4 differentiation compared with 9cis-RA positive control [1]: promoting differentiation significantly higher than 9cis-RA positive control
- differentiation into MBP+ oligodendrocytes [2]: promote significantly (p<0.05) the differentiation into MBP+ oligodendrocytes

SMILES: CCOC(=O)[C@@H](N)CCC(=O)N[C@@H](CSCc1ccccc1)C(=O)N[C@@H](C(=O)OCC)c1ccccc1.Cl [Ezatiostat hydrochloride, Ezatiostat Hydrochloride]
- CG4 differentiation compared with 9cis-RA positive control [1]: promoting differentiation significantly higher than 9cis-RA positive control
- differentiation into MBP+ oligodendrocytes ([2]; Hydrochloride): promote significantly (p<0.05) the differentiation into MBP+ oligodendrocytes

SMILES: C[C@H](Nc1cc(-c2cnn(C)c2)cc(Nc2cnccn2)n1)c1ccc(F)cc1 [NS-018]
- CG4 differentiation compared with 9cis-RA positive control [1]: promoting differentiation significantly higher than 9cis-RA positive control
- differentiation into MBP+ oligodendrocytes [2]: promote significantly (p<0.05) the differentiation into MBP+ oligodendrocytes

SMILES: NCCCC[C@H](NC(=O)[C@@H](Cc1cc(Br)c(O)c(Br)c1)NC(=O)N1CCC(N2Cc3ccccc3NC2=O)CC1)C(=O)N1CCN(c2ccncc2)CC1 [Olcegepant]
- CG4 differentiation compared with 9cis-RA positive control [1]: promoting differentiation significantly higher than 9cis-RA positive control
- differentiation into MBP+ oligodendrocytes [2]: promote significantly (p<0.05) the differentiation into MBP+ oligodendrocytes

SMILES: O=C(NOC[C@H](O)CO)c1ccc(F)c(F)c1Nc1ccc(I)cc1F [PD-0325901]
- CG4 differentiation compared with 9cis-RA positive control [1]: promoting differentiation significantly higher than 9cis-RA positive control
- differentiation into MBP+ oligodendrocytes [2]: promote significantly (p<0.05) the differentiation into MBP+ oligodendrocytes

SMILES: CC(=O)[C@H]1CC[C@H]2[C@@H]3CCC4=CC(=O)CC[C@]4(C)[C@H]3CC[C@]12C [Progesterone]
- CG4 differentiation compared with 9cis-RA positive control [1]: promoting differentiation significantly higher than 9cis-RA positive control
- differentiation into MBP+ oligodendrocytes [2]: promote significantly (p<0.05) the differentiation into MBP+ oligodendrocytes

SMILES: CC1(C)CCC(C)(C)c2cc(NC(=O)c3ccc(C(=O)O)cc3)ccc21 [Tamibarotene]
- CG4 differentiation compared with 9cis-RA positive control [1]: promoting differentiation significantly higher than 9cis-RA positive control
